Measured values taken from patent US20230416248A1, “COMPOUNDS AND USES THEREOF” (Foghorn Therapeutics Inc., priority 2020, published 2023).
Where two headings read alike, the source gives them in different places.

Experiments:
BRG-1 = molecular target: T1, BRG-1 (Homo sapiens, UniProt P51532); test: ATPase catalytic activity of BRG-1, ADP-Glo in vitro biochemical assay; details: 30 nM BRG-1, 400 μM ATP, read-out: BRG1 IC50
T1 construct: made in house; host or cells: High Five insect cells
Description: (§1) The ATPase catalytic activity of BRM or BRG-1 was measured by an in vitro biochemical assay using ADP-Glo™ (Promega, V9102). The ADP-Glo™ kinase assay is performed in two steps once the reaction is complete. The first step is to deplete any unconsumed ATP in the reaction. The second step is to convert the reaction product ADP to ATP, which will be utilized by the luciferase to generate luminesce and be detected by a luminescence reader, such as Envision.
Then, following addition of 5 μL of ADP-Glo™ Reagent provided in the kit, the reaction incubates at room temperature for 40 minutes. Then, 10 μL of Kinase Detection Reagent provided in the kit is added to convert ADP to ATP, and the reaction incubates at room temperature for 60 minutes. Finally, luminescence measurement is collected with a plate-reading luminometer, such as Envision.

BRM = molecular target: T2, BRM (Homo sapiens, UniProt P51531); test: ATPase catalytic activity of BRM, ADP-Glo in vitro biochemical assay; details: for IC50: 30 nM BRM, 400 μM ATP; for Ratio* (BRG1 IC50 (μM) divided by BRM IC50 (μM)): selectivity ratio BRG1 IC50 / BRM IC50
T2 construct: made in house; host or cells: High Five insect cells
Description: as §1
The assay reaction mixture ([…]) contains 30 nM of BRM or BRG-1, 20 nM salmon sperm DNA (from Invitrogen, UfraPure™ Salmon Sperm DNA Solution, cat #15632011), and 400 μM of ATP in the ATPase assay buffer, which comprises of 20 mM Tris, pH 8, 20 mM MgCl2, 50 mM NaCl, 0.1% Tween-20, and 1 mM fresh DTT (Piercer™ DTT (Dithiothreitol), cat #20290). The reaction is initiated by the addition of the 2.5 μL ATPase solution to 2.5 μL ATP/DNA solution on low volume white Proxiplate-384 plus plate (PerkinElmer, cat #6008280) and incubates at room temperature for 1 hour. Then, following addition of 5 μL of ADP-Glo™ Reagent provided in the kit, the reaction incubates at room temperature for 40 minutes. Then, 10 μL of Kinase Detection Reagent provided in the kit is added to convert ADP to ATP, and the reaction incubates at room temperature for 60 minutes. Finally, luminescence measurement is collected with a plate-reading luminometer, such as Envision.

[1] = ATPase catalytic activity, ADP-Glo

T2 sequence (P51531 whole entry): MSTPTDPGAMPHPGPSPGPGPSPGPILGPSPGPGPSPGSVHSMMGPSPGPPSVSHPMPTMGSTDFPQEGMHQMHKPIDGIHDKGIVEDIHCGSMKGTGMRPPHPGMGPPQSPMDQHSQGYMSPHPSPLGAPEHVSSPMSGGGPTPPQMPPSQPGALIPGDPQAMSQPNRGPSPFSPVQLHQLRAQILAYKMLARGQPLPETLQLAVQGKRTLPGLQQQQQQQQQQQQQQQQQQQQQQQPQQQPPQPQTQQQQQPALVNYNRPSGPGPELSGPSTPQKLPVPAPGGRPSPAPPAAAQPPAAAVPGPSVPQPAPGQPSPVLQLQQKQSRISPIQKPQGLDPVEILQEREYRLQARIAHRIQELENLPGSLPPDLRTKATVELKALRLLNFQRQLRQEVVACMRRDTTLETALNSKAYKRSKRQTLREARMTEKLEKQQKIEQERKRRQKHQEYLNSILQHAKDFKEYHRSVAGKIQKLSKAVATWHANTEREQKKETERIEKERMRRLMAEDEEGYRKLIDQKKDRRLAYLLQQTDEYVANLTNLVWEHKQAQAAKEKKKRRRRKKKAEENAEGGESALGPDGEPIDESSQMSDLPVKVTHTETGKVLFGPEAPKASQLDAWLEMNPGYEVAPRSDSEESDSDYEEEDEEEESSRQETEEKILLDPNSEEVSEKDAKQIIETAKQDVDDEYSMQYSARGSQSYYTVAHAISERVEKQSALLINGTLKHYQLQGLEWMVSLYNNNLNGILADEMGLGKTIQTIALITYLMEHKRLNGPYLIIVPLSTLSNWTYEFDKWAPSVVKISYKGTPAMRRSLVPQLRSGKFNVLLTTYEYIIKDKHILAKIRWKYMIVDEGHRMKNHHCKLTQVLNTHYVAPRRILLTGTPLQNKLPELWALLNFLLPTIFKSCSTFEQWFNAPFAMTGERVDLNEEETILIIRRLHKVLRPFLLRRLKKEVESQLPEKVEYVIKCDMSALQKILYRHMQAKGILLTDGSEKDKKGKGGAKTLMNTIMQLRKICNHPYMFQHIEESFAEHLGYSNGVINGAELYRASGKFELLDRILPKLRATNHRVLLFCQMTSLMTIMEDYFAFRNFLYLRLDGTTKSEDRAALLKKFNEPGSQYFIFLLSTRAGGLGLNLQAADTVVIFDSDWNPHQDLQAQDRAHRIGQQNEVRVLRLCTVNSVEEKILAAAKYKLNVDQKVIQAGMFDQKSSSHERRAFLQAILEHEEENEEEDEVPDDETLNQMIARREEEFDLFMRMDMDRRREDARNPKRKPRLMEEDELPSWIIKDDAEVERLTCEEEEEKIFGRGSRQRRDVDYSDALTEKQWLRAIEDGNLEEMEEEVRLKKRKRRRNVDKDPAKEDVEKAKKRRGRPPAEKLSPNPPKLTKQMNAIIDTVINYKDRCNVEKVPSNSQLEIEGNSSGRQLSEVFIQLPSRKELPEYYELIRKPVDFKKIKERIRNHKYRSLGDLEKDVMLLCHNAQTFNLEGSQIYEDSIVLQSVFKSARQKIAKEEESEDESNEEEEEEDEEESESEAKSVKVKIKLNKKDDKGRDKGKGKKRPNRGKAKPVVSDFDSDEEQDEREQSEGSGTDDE
T1 sequence (P51532 whole entry): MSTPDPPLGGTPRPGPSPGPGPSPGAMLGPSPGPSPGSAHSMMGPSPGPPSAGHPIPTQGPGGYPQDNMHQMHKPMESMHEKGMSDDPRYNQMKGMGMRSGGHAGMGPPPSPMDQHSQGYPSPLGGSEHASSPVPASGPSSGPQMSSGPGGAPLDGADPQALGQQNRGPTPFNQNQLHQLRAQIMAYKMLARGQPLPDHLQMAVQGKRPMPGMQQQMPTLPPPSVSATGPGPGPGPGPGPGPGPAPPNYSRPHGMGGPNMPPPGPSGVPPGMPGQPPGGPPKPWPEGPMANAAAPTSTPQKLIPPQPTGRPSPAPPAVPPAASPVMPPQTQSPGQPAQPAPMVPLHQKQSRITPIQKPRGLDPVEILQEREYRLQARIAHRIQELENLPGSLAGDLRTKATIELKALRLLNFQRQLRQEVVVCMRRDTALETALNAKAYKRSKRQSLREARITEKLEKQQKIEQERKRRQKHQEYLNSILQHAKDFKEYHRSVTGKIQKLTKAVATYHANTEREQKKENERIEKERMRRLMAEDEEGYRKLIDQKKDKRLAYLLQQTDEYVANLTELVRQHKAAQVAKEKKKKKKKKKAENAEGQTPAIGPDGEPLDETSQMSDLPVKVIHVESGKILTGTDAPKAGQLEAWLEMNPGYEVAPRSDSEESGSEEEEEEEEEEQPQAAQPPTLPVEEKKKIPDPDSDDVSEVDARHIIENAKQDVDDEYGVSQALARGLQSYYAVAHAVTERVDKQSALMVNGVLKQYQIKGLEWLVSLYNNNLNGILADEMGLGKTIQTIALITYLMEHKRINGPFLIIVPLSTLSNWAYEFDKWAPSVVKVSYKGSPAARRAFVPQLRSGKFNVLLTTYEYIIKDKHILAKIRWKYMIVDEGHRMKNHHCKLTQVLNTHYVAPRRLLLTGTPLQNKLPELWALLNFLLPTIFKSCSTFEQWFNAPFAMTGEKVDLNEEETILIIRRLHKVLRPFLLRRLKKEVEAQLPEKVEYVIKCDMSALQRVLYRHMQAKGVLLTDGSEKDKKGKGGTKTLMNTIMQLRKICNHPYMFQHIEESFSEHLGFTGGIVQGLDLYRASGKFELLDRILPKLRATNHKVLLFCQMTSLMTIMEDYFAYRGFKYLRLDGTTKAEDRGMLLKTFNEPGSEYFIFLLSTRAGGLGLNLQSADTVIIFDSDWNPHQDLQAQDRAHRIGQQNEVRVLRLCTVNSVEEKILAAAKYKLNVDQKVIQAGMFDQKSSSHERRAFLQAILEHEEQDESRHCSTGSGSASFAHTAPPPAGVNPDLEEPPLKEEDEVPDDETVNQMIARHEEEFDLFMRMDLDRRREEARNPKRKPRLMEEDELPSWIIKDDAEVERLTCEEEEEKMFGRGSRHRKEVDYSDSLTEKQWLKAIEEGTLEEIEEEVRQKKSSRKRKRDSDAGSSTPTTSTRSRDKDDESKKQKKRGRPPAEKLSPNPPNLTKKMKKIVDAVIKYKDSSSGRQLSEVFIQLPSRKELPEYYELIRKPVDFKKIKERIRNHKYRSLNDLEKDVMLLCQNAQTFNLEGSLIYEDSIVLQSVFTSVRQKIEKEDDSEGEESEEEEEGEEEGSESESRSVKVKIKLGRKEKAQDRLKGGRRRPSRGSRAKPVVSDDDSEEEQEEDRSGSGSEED

| SMILES | IC50 (BRG-1; [1]) [µM] | IC50 (BRM; [1]) [µM] | Ratio* (BRM; ratio of BRG1 IC50 to BRM IC50) | IC50 (BRG-1; ADP-Glo ATPase assay) [µM] | IC50 (BRM; ADP-Glo ATPase assay) [µM] | Ratio* (BRG1 IC50 (μM) divided by BRM IC50 (μM)) (BRM) |
| --- | --- | --- | --- | --- | --- | --- |
| C[C@@H]1CN(c2cccc(-c3ccc4cnc(CNC(=O)c5cnc6c(c5)S(=O)(=O)CCC5CC65)cc4n3)n2)C[C@H](C)O1 (mixture of isomers) [Compound 528] | 0.0336 | 0.0079 | 4.24 | – | – | – |
| CC1COCc2ccc(C(=O)NCc3cc4nc(-c5cccc(N6CCC6)n5)ccc4cn3)cc2S1(=O)=O (single isomer, unassigned) [Compound 197] | – | – | – | 0.244 | 0.0193 | 12.64 |
| CC1COCc2ccc(C(=O)NCc3cc4nc(-c5cccc(N6CCC6)n5)ccc4cn3)cc2S1(=O)=O (single isomer, unassigned) [Compound 199] | – | – | – | 2.41 | 0.252 | 9.56 |
| C[C@@H]1CN(c2cccc(-c3ccc4cnc(CNC(=O)c5ccc6c(c5)S(=O)(=O)[C@@H](C)CCO6)cc4n3)n2)C[C@H](C)O1 [Compound 15] | – | – | – | 0.0511 | 0.0075 | 6.80 |
| C[C@@H]1CN(c2cccc(-c3ccc4cnc(CNC(=O)c5cc(F)c6c(c5)S(=O)(=O)CCCO6)cc4n3)n2)C[C@H](C)O1 [Compound 37] | – | – | – | 0.085 | 0.0086 | 9.89 |
| C[C@@H]1CN(c2cccc(-c3ccc4nnc(CNC(=O)c5ccc(C(F)F)c(S(C)(=O)=O)c5)cc4n3)n2)C[C@H](C)O1 [Compound 40] | – | – | – | 0.0884 | 0.0089 | – |
| C[C@@H]1CN(c2cccc(-c3cnc4cnc(CNC(=O)c5ccc(Cl)c(S(C)(=O)=O)c5)cc4n3)n2)C[C@H](C)O1 [Compound 41] | – | – | – | 0.194 | 0.0181 | 10.70 |
| CO[C@H]1C[C@H](N(C)c2cccc(-c3ccc4cnc(CNC(=O)c5ccc6c(c5)S(=O)(=O)CCOC6)cc4n3)n2)C1 [Compound 42] | – | – | – | 0.127 | 0.0173 | 7.37 |
| Cn1ccc2c(-c3ccc4cnc(CNC(=O)c5ccc6c(c5)S(=O)(=O)CCOC6)cc4n3)ccc(Cl)c21 [Compound 43] | – | – | – | 0.185 | 0.0198 | 9.33 |
| COC(C)(C)CN(C)c1cccc(-c2ccc3cnc(CNC(=O)c4ccc5c(c4)S(=O)(=O)CCOC5)cc3n2)n1 [Compound 44] | – | – | – | 0.694 | 0.0905 | 7.67 |
| C[C@@H]1C=C(c2cccc(-c3ccc4cnc(CNC(=O)c5ccc6c(c5)S(=O)(=O)CCOC6)cc4n3)n2)C[C@H](C)O1 [Compound 45] | – | – | – | 0.0198 | 0.0051 | 3.87 |
| C[C@@H]1CC(c2cccc(-c3ccc4cnc(CNC(=O)c5ccc6c(c5)S(=O)(=O)CCOC6)cc4n3)n2)=C[C@H](C)O1 [Compound 46] | – | – | – | 0.0459 | 0.0093 | 4.92 |
| O=C(NCc1cc2nc(N3CCc4cccnc43)ccc2cn1)c1ccc2c(c1)S(=O)(=O)CCOC2 [Compound 47] | – | – | – | 0.457 | 0.0745 | 6.12 |
| CC1CS(=O)(=O)c2cc(C(=O)NCc3cc4nc(-c5cccc(N6C[C@@H](C)O[C@@H](C)C6)n5)ccc4cn3)ccc2CO1 (stereo partly drawn) [Compound 48] | – | – | – | 1.84 | 0.294 | 6.26 |
| CCOc1cccc(-c2ccc3cnc(CNC(=O)c4cc(F)c5c(c4)S(=O)(=O)CCOC5)cc3n2)n1 [Compound 49] | – | – | – | 0.455 | 0.0248 | 18.33 |
| O=C(NCc1cc2nc(N3CCc4ccccc43)ccc2cn1)c1ccc2c(c1)S(=O)(=O)CCOC2 [Compound 50] | – | – | – | 1.52 | 0.147 | – |
| C[C@@H]1CN(c2cccc(-c3ccc4cnc(CNC(=O)c5ccc6c(c5)S(=O)(=O)CCN(C)C6)cc4n3)n2)C[C@H](C)O1 [Compound 51] | – | – | – | 0.2 | 0.0349 | 5.74 |
| O=C(NCc1cc2nc(N3CCCc4ccncc43)ccc2cn1)c1ccc2c(c1)S(=O)(=O)CCOC2 [Compound 52] | – | – | – | 0.716 | 0.076 | 9.43 |
| C[C@@H]1CN(c2cccc(-c3ccc4cnc(CNC(=O)c5ccc6c(c5)S(=O)(=O)CCCO6)cc4n3)n2)C[C@H](C)O1 [Compound 53] | – | – | – | 0.116 | 0.0117 | – |
| CC1OCCS(=O)(=O)c2cc(C(=O)NCc3cc4nc(-c5cccc(N6C[C@@H](C)O[C@@H](C)C6)n5)ccc4cn3)ccc21 (stereo partly drawn) [Compound 54] | – | – | – | 0.0447 | 0.0095 | 4.70 |
